IC50 data for eight compounds are collected here from patent publication US12552753B2, “Methods and compositions for targeting Tregs using CCR8 inhibitors” (Nanjing Immunophage Biomedical Co., Ltd., priority 2020, dated 2026).

Where a name gives a salt, the structure may show the parent alone.

The target of the test is CCR8 (Homo sapiens, UniProt P51685). Put plainly: Tango assay (Tango-CCR8-Gal4-CHO-K1 cells, CCL1-stimulated, ONE-Glo luminescence). To be noted: Tango Assay IC50, Inhibition of CCR8 Tango cell in vitro.
Chain of CCR8 (P51685 whole entry, the tested form may be a part): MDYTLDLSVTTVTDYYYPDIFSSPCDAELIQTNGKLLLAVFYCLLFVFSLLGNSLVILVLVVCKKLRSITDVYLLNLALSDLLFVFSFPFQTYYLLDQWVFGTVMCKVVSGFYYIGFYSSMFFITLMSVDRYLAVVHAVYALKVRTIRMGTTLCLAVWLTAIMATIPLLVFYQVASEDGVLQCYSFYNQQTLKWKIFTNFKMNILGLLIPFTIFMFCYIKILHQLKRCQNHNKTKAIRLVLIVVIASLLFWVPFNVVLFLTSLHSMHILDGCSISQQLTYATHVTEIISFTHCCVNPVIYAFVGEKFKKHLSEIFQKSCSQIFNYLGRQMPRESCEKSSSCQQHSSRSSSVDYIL
Method: The Tango cell line was used to monitor antagonists-mediated receptor inactivation.
Tango cells (Tango-CCR8-Gal4-CHO-K1 cells constructed by Genomeditech) were passaged in complete medium (F12K, 10% FBS, 1% penicillin-streptomycin, 4 μg/ml puromycin, 4 μg/ml blasticidin and 100 μg/ml hygromycin) in incubator (37° C., 5% CO2).
Twenty-four hours before the seed, cells were cultured in 10 or 15 cm dish at a density of 30% confluence in culture medium (F12K, 10% FBS, 1% penicillin-streptomycin).
Cells were suspended in starving medium (F12K, 1% FBS, 1% penicillin-streptomycin) before being seeded into black/clear 96 wells (1×10^4 cells/70 μl/well) and incubated for 6 hours (37° C., 5% CO2). Different concentration of compound, dissolved in DMSO, was into the 96-well plates, with 50 μl in each well, and incubation continued for 1 hour at 37° C.
After the incubation, the medium was removed and the 96-well plate was put in −80° C. freezer for an hour or longer. The plate and the ONE-Glo reagent (Promega, Catalog Number: E6110) which was frozen in −80° C., were taken out and rewarmed to room temperature. The ONE-Glo working reagent was prepared by mixing ONE-Glo reagent with F12K (no FBS) (1:2), and 40 μl ONE-Glo working reagent was added into each well. After incubating for 10 minutes at room temperature, the plate was read using microplate luminescence reader at 560 nm.
The microplate reader records luminescence in relative luminescence units (RLU).
In general, IC50 refers to the concentration at which inhibition is half-maximal. With `Cc1ccccc1C(=O)Nc1ccc(S(=O)(=O)N(C)c2ccc3c(c2)N(C(=O)CN(C)C)CC3)c2ccccc12` [Compound 38, N-(4-(N-(1-(2-(dimethylamino)acetyl)indolin-6-yl)-N-methylsulfamoyl)naph-thalen-1-yl)-2-methylbenzamide], the IC50 came out at 1680 nM.
Next, `Cc1ccccc1C(=O)Nc1cc(C)c(S(=O)(=O)N[C@H](C)C2CCNCC2)cc1F` [Compound 257, (R)-N-(2-fluoro-5-methyl-4-(N-(1-(piperidin-4-yl)ethyl)sulfamoyl)phenyl)-2-methylbenzamide hydrochloride]: 15 nM; `Cc1ccccc1NC(=O)c1ccc(S(=O)(=O)NC(C)C2CCCCC2)cc1` (centres unmarked) [Compound 111, 4-(N-(1-cyclohexylethyl)sulfam-oyl)-N-(o-tolyl)benzamide]: > 10000 nM; `Cc1ccc(C(=O)Nc2ccc(S(=O)(=O)N[C@H](C)C3CCN(C)CC3)cc2C)c(C)c1` [Compound 277, (R)-2,4-dimethyl-N-(2-methyl-4-(N-(1-(1-methylpiperidin-4-yl)ethyl)sulfamoyl)phenyl) benzamide]: 2 nM.
With `CC(NS(=O)(=O)c1ccc2nc(Nc3ccccc3)[nH]c2c1)C1CCCCC1` (centres unmarked) [Compound 145, N-(1-cyclohexylethyl)-2-(phenylamino)-1H-benzo[d]imidazole-6-sulfonamide], 870 nM corresponded to half-maximal inhibition (IC50).
On to `Cc1ccccc1C(=O)Nc1ccc(S(=O)(=O)N[C@H](C)C2CCNCC2)cc1C1CC1` [Compound 198, (R)-N-(2-cyclopropyl-4-(N-(1-(piperidin-4-yl)ethyl)sulfamoyl)phenyl)-2-methylbenzamide], for which half-maximal inhibition (IC50) was put at 26 nM.
With `Cc1c(C(=O)O)cccc1S(=O)(=O)NC(C)C1CCCCC1` (centres unmarked) [Compound 143, 3-(N-(1-cyclohexylethyl)sul-famoyl)-2-methylbenzoic acid] the figure was > 10000 nM; with `COC(=O)C(NS(=O)(=O)c1ccc(NC(=O)c2ccccc2C)c(C)c1)C1CCNCC1` (centres unmarked) [Compound 240A, methyl 2-((3-methyl-4-(2-methylbenzamido)phen-yl)sulfonamido)-2-(piperidin-4-yl)acetate hydrochloride], > 100000 nM.
